# Read-outs that look alike come from different tables or passages of the source.
# Key:
# [1] = system: codon 61 of c-Ha-ras; test: DMBA-induced Ha-ras codon 61 mutation in mouse skin DNA; type: in vivo, female SENCAR mice; conditions: acetone neg. control 3.05
# Description: One of the best studied in vivo models for evaluation of environmental stress response effects on DNA and cell damage is the mouse skin system in which the skin is treated with a chemical compound known to damage DNA and cell structure and function. […] Exp. Med. Biol. 1995, 369, 167). […] Following dosing and treatment, skin DNA and cell structure and function were evaluated using three endpoints, epidermal hyperplasia, 8-OH-dG formation, and Ha-ras mutation. Each method is described briefly below. Seven week old, pathogen free, female SENCAR mice were purchased from the National Cancer Institute (NCI, Frederick, Md.). Mice were randomized by weight and separated into groups (n=5 mice per group). Experimental groups of mice were treated on shaved dorsal skin with antioxidants, 15 min prior to treatment with DMBA (25 μg per treatment). […] Epidermal thickness was determined in each animal from at least 20 randomly selected sites per animal using formalin-fixed, paraffin-embedded 5 μm sections stained with hematoxylin and eosin. […] DNA isolated from freshly-frozen tissues of 5 mice per group was analyzed for […] of c-Ha-ras by PCR analysis. […] The ratio of the amount of wild type DNA to mutated DNA was determined by quantifying intensity of 32P labeling on autoradiograms. […]
# [2] = system: 3PC cells; test: ATP-bioluminescence assay, reactive oxygen species-stimulated growth of cells; type: cell-based
# [3] = system: DMBA-induced epidermal hyperplasia; test: Inhibition of DMBA-induced epidermal hyperplasia in mouse skin; type: in vivo, female SENCAR mice
# Description: One of the best studied in vivo models for evaluation of environmental stress response effects on DNA and cell damage is the mouse skin system in which the skin is treated with a chemical compound known to damage DNA and cell structure and function. […] Exp. Med. Biol. 1995, 369, 167). […] Following dosing and treatment, skin DNA and cell structure and function were evaluated using three endpoints, epidermal hyperplasia, 8-OH-dG formation, and Ha-ras mutation. Each method is described briefly below. Seven week old, pathogen free, female SENCAR mice were purchased from the National Cancer Institute (NCI, Frederick, Md.). Mice were randomized by weight and separated into groups (n=5 mice per group). Experimental groups of mice were treated on shaved dorsal skin with antioxidants, 15 min prior to treatment with DMBA (25 μg per treatment). In topical experiments, different doses, i.e., 0.5, 1.0, 2.0, and/or 4.0 mg, of test or reference antioxidants per mouse were applied topically twice weekly for a total of 8 treatments (4 weeks). […] Negative control groups were treated with vehicle (acetone) only. […] Most antioxidants were administered in acetone. Antioxidants that were not soluble in acetone to the desired concentration, were dissolved in the necessary volume: mixture of acetone and water or ethanol. All topical treatments were administered in a final volume of 0.2 mL. […] The same control groups were maintained. Both positive and negative control groups were fed a standard AIN-93G diet (i.e., not supplemented with antioxidants). […] At sacrifice the shaved dorsal skin section was removed. […] Epidermal thickness was determined in each animal from at least 20 randomly selected sites per animal using formalin-fixed, paraffin-embedded 5 μm sections stained with hematoxylin and eosin. The remaining skin was frozen in liquid nitrogen. All frozen sections were stored at −70 C until analysis for isolation of DNA.
# [4] = 3PC cells, read-out: Estimated IC50 (mg/L) in ATP Bioluminescence Assay
structure (smiles),measurement,setting,value
"Cc1c2ccccc2c(C)c2c1ccc1ccccc12 [DMBA, dimethylbenzanthracene]",Ha-ras Formation,[1]; DMBA only (pos. control),18.39
"O=C1O[C@H]([C@@H](O)CO)C(O)=C1O [Ascorbic Acid, L-ascorbic acid]",Ha-ras Formation,[1]; topical 4 mg + DMBA,6.19
same,IC50,[2]; [4],4.6 mg/L
same,IC50,"[2]; ATP bioluminescence, calculated on ascorbic acid content, read-out: Estimated IC50 Based on vitamin C content",4.6 mg/L
same,IC50,"[2]; ATP bioluminescence, read-out: Estimated IC50 based on weight",4.6 mg/L
same,Inhibition of DMBA-Induced Epidermal Hyperplasia,[3]; dietary 1.0%,83%
same,Inhibition of DMBA-Induced Epidermal Hyperplasia,[3]; dietary 5.0%,86%
same,Inhibition of DMBA-Induced Epidermal Hyperplasia,[3]; topical application 0.5 mg,66%
same,Inhibition of DMBA-Induced Epidermal Hyperplasia,[3]; topical application 2.0 mg,66%
"CC1=C[C@H](O)CC(C)(C)[C@H]1/C=C/C(C)=C/C=C/C(C)=C/C=C/C=C(C)/C=C/C=C(C)/C=C/C1=C(C)C[C@@H](O)CC1(C)C [Lutein, lutein]",IC50,[2]; [4],70.8 mg/L

# From patent US20070243270A1, “METHODS AND KITS FOR REDUCING CELLULAR DAMAGE, INHIBITING FREE RADICAL PRODUCTION, AND SCAVENGING FREE RADICALS IN MAMMALS” (priority 2003, published 2007)
